Results reported in patent publication US20260159527A1, “MACROCYCLIC BCL6 DEGRADERS” (DANA-FARBER CANCER INSTITUTE, INC., priority 2022, published 2026).
Read-outs that look alike come from different tables or passages of the source.

How the values were obtained:
[1] = 14-membered ring
[2] = from C[C@@H]1CN(c2ncc(Cl)c(Nc3cc(OCC(=O)O)c4c(c3)[nH]c(=O)n4C)n2)C[C@H](N)C1(F)F; amide bond; 14-membered ring; HATU/DIEA; DMF; 141.0 mM; 20.0 °C; 2.0 h
BCL6 = molecular target: T1, BCL6 (Homo sapiens, UniProt P41182); test: HiBiT cellular degradation assay (Promega) in Su-DHL-4 cells; type: cell-based; conditions: concentration to reach 50% degradation; endogenous BCL6 tagged with SmBiT in Su-DHL-4 cells; 24 hr of compound treatment; relative to DMSO control
T1 construct: Endogenous BCL6 was tagged with the 11-amino acid SmBiT through CRISPR/Cas9 gene editing; endogenous in cells; host or cells: Su-DHL-4 cells, CRISPR/Cas9 knock-in single cell clone
Procedure: DC50 (concentration to reach 50% degradation) values were determined from a cellular degradation assay (HiBiT, Promega™) in Su-DHL-4 cells (Table 1). Endogenous BCL6 was tagged with the 11-amino acid SmBiT through CRISPR/Cas9 gene editing and single cell clone selection. After 24 hr of compound treatment, cells were lysed and incubated with LgBiT protein to reconstitute intact nanoluciferase. Substrate was then added and relative luciferase units were measured. Degradation levels for each treatment were taken as a percentage compared to the control, 100% DMSO (Prism).

[3] = snar bond, 14-membered ring, DIEA, 80.0 °C, 12.0 h

CC1CN2CC(NC(=O)COc3cc(cc4[nH]c(=O)n(C)c34)Nc3nc2ncc3F)C1(F)F (centres unmarked)
ring closure, isolated yield ([1]; from CC1CN(c2ncc(F)c(Nc3cc(OCC(=O)O)c4c(c3)[nH]c(=O)n4C)n2)CC(N)C1(F)F, amide bond, HATU/DIEA, DMF, 148.0 mM, 15.0 °C, 2.0 h): 74%

C[C@@H]1CN2C[C@H](NC(=O)COc3cc(cc4[nH]c(=O)n(C)c34)Nc3nc2ncc3Cl)C1(F)F
ring closure, crude yield [2]: 59%

C[C@@H]1C[C@H]2CN(C1)c1ncc(Cl)c(n1)Nc1cc(c3c(c1)[nH]c(=O)n3C)OCCN2
ring closure, isolated yield ([1]; from C[C@@H]1C[C@H](N)CN(c2ncc(Cl)c(Nc3cc(OCCCl)c4c(c3)[nH]c(=O)n4C)n2)C1, amine bond, K2CO3/NaI, DMF, 11.5 mM, 100.0 °C, 36.0 h): 42%

C[C@@H]1C[C@H]2CN(C1)c1ncc(Cl)c(n1)Nc1cc(c3c(c1)[nH]c(=O)n3C)OCCO2
ring closure, isolated yield ([1]; from C[C@H]1CNC[C@@H](OCCOc2cc(Nc3nc(Cl)ncc3Cl)cc3[nH]c(=O)n(C)c23)C1, snar bond, DIEA, DMSO, 38.3 mM, 80.0 °C, 12.0 h): 12%

C[C@H]1CN2C[C@@H](OCCOc3cc(cc4[nH]c(=O)n(C)c34)Nc3nc2ncc3Cl)C1(F)F
ring closure, isolated yield ([1]; from C[C@H]1CNC[C@@H](OCCOc2cc(Nc3nc(Cl)ncc3Cl)cc3[nH]c(=O)n(C)c23)C1(F)F, snar bond, DIEA, DMSO, 49.7 mM, 80.0 °C, 24.0 h): 30%

C[C@H]1C[C@@H]2CN(C1)c1ncc(Cl)c(n1)Nc1cc(c3c(c1)[nH]c(=O)n3C)OCCO2
ring closure, isolated yield ([1]; from C[C@@H]1CNC[C@H](OCCOc2cc(Nc3nc(Cl)ncc3Cl)cc3[nH]c(=O)n(C)c23)C1, snar bond, DIEA, DMSO, 18.4 mM, 80.0 °C, 12.0 h): 13%

CNC(=O)COc1cc2cc3cc(c2n(C)c1=O)OCCC[C@H]1CN(C[C@@H](C)C1(F)F)c1ncc(Cl)c(n1)N3 [Compound 4, 2-(((1^3S, 1^5R)-2^5-chloro-1^4,1^4-difluoro-13,41-dimethyl-4^2-oxo-4^1,4^2-dihydro-5-oxa-3-aza-4(6,8)-quinolina-2(2,4)-pyrimidina-1 (1,3)-piperidinacyclooctaphane-4^3-yl)oxy)-N-methylacetamide]
DC50 (BCL6): 0.68 nM | ring closure, yield after HPLC ([3]; from CNC(=O)COc1cc2cc(Nc3nc(Cl)ncc3Cl)cc(OCCC[C@H]3CNC[C@@H](C)C3(F)F)c2n(C)c1=O, DMF, 140.0 mM): 12%

CNC(=O)COc1cc2cc3cc(c2n(C)c1=O)OCCO[C@@H]1C[C@H](C)CN(C1)c1ncc(Cl)c(n1)N3 [Compound 6, 2-(((1^3R, 1^5S)-2^5-chloro-1^5,4^1-dimethyl-4^2-oxo-4^1, 4^2-dihydro-5,8-dioxa-3-aza-4(6.8)-quinolina-2(2,4)-pyrimidina-1 (1,3)-piperidinacyclooctaphane-4^3-yl)oxy)-N-methylacetamide]
DC50 (BCL6): 0.61 nM | ring closure, yield after HPLC ([3]; from CNC(=O)COc1cc2cc(Nc3nc(Cl)ncc3Cl)cc(OCCO[C@H]3CNC[C@@H](C)C3)c2n(C)c1=O, DMSO, 36.0 mM): 12%

C[C@@H]1CN2C[C@H](CCCOc3cc(cc4[nH]c(=O)n(C)c34)Nc3nc2ncc3Cl)C1(F)F [Compound 26, (1^3S,1^3R)-2^5-chloro-1^4,1^4-difluoro-1^5,4^3-dimethyl-4^2,4^3-dihydro-4 H-5-oxa-3-aza-4(6,4)-benzo[d]imidazola-2(2,4)-pyrimidina-1 (1,3)-piperidinacyclooctaphan-4^2-one]
DC50 (BCL6): 72 nM | ring closure, isolated yield ([1]; from C[C@@H]1CNC[C@H](CCCOc2cc(Nc3nc(Cl)ncc3Cl)cc3[nH]c(=O)n(C)c23)C1(F)F, snar bond, DIEA, DMSO, 27.1 mM, 80.0 °C, 12.0 h): 64%

C[C@H]1CN2C[C@@H](CCCOc3cc(cc4[nH]c(=O)n(C)c34)Nc3nc2ncc3Cl)C1(F)F [Compound 27, (1^3R, 1^5S)-2^5-chloro-1^4,1^4-difluoro-1^5,4^3-dimethyl-4^2,4^3-dihydro-4^1H-5-oxa-3-aza-4(6,4)-benzo[d]imidazola-2(2,4)-pyrimidina-1 (1,3)-piperidinacyclooctaphan-4^2-one]
DC50 (BCL6): > 400 nM | ring closure, isolated yield ([1]; from C[C@H]1CNC[C@@H](CCCOc2cc(Nc3nc(Cl)ncc3Cl)cc3[nH]c(=O)n(C)c23)C1(F)F, snar bond, DIEA, DMSO, 40.6 mM, 80.0 °C, 12.0 h): 63%

C[C@H]1CN2C[C@@H](NCCOc3cc(cc4c3n(C)c(=O)n4CCC(C)(C)O)Nc3nc2ncc3Cl)C1(F)F [Compound 35, (1^3R, 1^5S)-1^4,1^4,2^5-Trifluoro-4^1-(3-hydroxy-3-methylbutyl)-1^5,4^3-dimethyl-4^2,4^3-dihydro-4^1H-5-oxa-3,8-diaza-4(6,4)-benzo[d]imidazola-2(2,4)-pyrimidina-1 (1,3)-piperidinacyclooctaphan-4^2-one]
DC50 (BCL6): > 400 nM

C[C@H]1CN2C[C@@H](NCCOc3cc(cc4[nH]c(=O)n(C)c34)Nc3nc2ncc3F)C1(F)F [Compound 37]
DC50 (BCL6): > 400 nM

C[C@@H]1CN2C[C@H](NCCOc3cc(cc4[nH]c(=O)n(C)c34)Nc3nc2ncc3F)C1(F)F [Compound 38]
DC50 (BCL6): 14.2 nM

C[C@@H]1CN2C[C@H](NCCOc3cc(cc4c3n(C)c(=O)n4CCC(C)(C)O)Nc3ccnc2n3)C1(F)F [Compound 39]
DC50 (BCL6): 96.7 nM

C[C@@H]1CN2C[C@H](NCCOc3cc(cc4c3n(C)c(=O)n4CCC(C)(O)CO)Nc3nc2ncc3Cl)C1(F)F (some centres unmarked) [Compound 40]
DC50 (BCL6): 3.7 nM

C[C@@H]1CN2C[C@H](NCCOc3cc(cc4c3n(C)c(=O)n4C[C@@H](O)C(C)(C)O)Nc3nc2ncc3Cl)C1(F)F [Compound 41]
DC50 (BCL6): 1 nM

C[C@@H]1CN2C[C@H](NCCOc3cc(cc4c3n(C)c(=O)n4C[C@H](O)C(C)(C)O)Nc3nc2ncc3Cl)C1(F)F [Compound 42]
DC50 (BCL6): 8.5 nM

C[C@@H]1CN2C[C@H](NCCOc3cc(cc4c3n(C)c(=O)n4CC[S@](C)(=N)=O)Nc3nc2ncc3Cl)C1(F)F [Compound 43]
DC50 (BCL6): 11.3 nM

C[C@@H]1CN2C[C@H](NCCOc3cc(cc4c3n(C)c(=O)n4CC[S@@](C)(=N)=O)Nc3nc2ncc3Cl)C1(F)F [Compound 44]
DC50 (BCL6): 18.9 nM

C[C@@H]1CN2C[C@H](NCCOc3cc(cc4c3n(C)c(=O)n4CCC3(O)COC3)Nc3nc2ncc3Cl)C1(F)F [Compound 45]
DC50 (BCL6): 8.7 nM

CNC(=O)COc1cc2cc3ccc2n(c1=O)CCCCO[C@H]1C[C@@H](C)CN(C1)c1ncc(Cl)c(n1)N3 [Compound A, reference compound]
DC50 (BCL6): > 400 nM

CNC(=O)COc1cc2cc3ccc2n(c1=O)CCCCO[C@@H]1C[C@H](C)CN(C1)c1ncc(Cl)c(n1)N3 [Compound B, reference compound]
DC50 (BCL6): > 400 nM
